The source of these data is patent publication US10870832B2, “Use of small molecules to enhance MAFA expression in pancreatic endocrine cells” (Janssen Biotech, Inc., priority 2014, dated 2020).

Assay type in all cases: cell-based, human
The test system of assay [1] is MAFA expression. Kind of assay: Stage 7 treatment, real-time PCR of MAFA (Example 7). The conditions noted are these: Stage 7, day 14, 2 μM R428 or 2-5 μM inhibitor substituted for R428, H1-derived cells, mRNA. The method, then:
(§1) Cells of the human embryonic stem cell line H1 (WA01) were seeded as single cells at 1×10^5 cells/cm^2 on MATRIGEL™ (1:30 dilution) coated dishes in E8 media. At about 70 to 80% confluency, the cultures were washed in 1× incomplete DPBS followed by incubation with 1× TrypLE™ Express Enzyme for 3 to 5 minutes at 37° C. The released cells were rinsed with E8 and spun at 1000 rpm for 5 minutes. The resulting cell pellet was resuspended in E8 supplemented with 10 μM Y-27632 and the single cell suspension was seeded at approximately 1.3 to 1.5×10^5 cells/cm^2. The cultures were fed every day with E8 medium and differentiation, according to the following protocol, was initiated 48 hrs. following seeding resulting in an about 90% starting confluency.
Stage 6 cells were cultured for fourteen days in BLAR medium supplemented with a 1:100 dilution of ITS-X; 20 mM glucose (final); 1.5 g/L sodium bicarbonate; 2% FAF-BSA; 10 μg/ml of heparin, 10 μM ZnSO4, 1 μM T3 as 3,3′, 5-triiodo-L-thyronine sodium salt, 10 μM ALK5 inhibitor II, 1 mM N-acetyl cysteine. Some cultures also included one of 2 μM R428, 2-5 μM RSK inhibitor II (2-(3,5-Difluoro-4-hydroxy-anilino)-8-isopentyl-5,7-dimethyl-7H-pteridin-6-one) (EMD Millipore; Catalog No, 559286-5MG), 2-5 μM aurora kinase inhibitor II (EMD Millipore, or a combination of 2-5 μM RSK inhibitor II and 2-5 μM aurora kinase II inhibitor.
At Stage 7, day 14, mRNA was collected and compared to undifferentiated human stem cells.
A general note: Quantitative PCR measures a nucleic acid by following its amplification.

Assay [2] has as its system MAFA expression. Kind of assay: Small molecule screen at Stage 6 or 7, real-time PCR (Example 2). To be noted: added at Stage 6, 1 μM, H1-derived cells at air-liquid interface. The method, then:
Cells of the human embryonic stem cell line H1 (WA01) at passage 42 were seeded as single cells at 1×10^5 cells/cm^2 on MATRIGEL™ (1:30 dilution)-coated dishes in a media comprising of DMEM-F12, GlutaMAX™ (1:100 dilution), 0.25 mM ascorbic acid, 100 ng/ml of FGF2 (R & D systems, MN), 1 ng/ml of TGF-β, ITS-X (1:100 dilution), 2% FAF-BSA, and 20 ng/ml of IGF-1, supplemented with 10 μM of Y-27632. Forty-eight hours post-seeding, the cultures were washed in incomplete PBS (phosphate buffered saline without Mg or Ca) followed by incubation with 1× TrypLE™ Express Enzyme (Life Science; Catalog No. 14190) for 3 to 5 minutes at 37° C. The released cells were rinsed with DMEM-F12 and spun at 1000 rpm for 5 minutes. The resulting cell pellet was resuspended in DMEM-F12 supplemented with 10 μM Y-27632, 1× GlutaMAX™, 0.25 mM ascorbic acid, 100 ng/ml FGF2, 1 ng/ml TGF-β, ITS-X at a 1:100 dilution, 2% FAF-BSA and 20 ng/ml of IGF-1 and the single cell suspension was seeded at approximately 1.3 to 1.5×10^5 cells/cm^2. The cultures were fed every day with medium and differentiation, according to the following protocol, was initiated 48 hours following seeding resulting in an about 90% starting confluency. […]
At Stages 6 or 7, various small molecules were added and their effect was evaluated by real-time PCR.

Assay [3] deals with G6PC2 expression. Kind of assay: Stage 7 treatment, real-time PCR of G6PC2 (Example 6). To be noted: Stage 7, day 7, 2 μM in Stage 7 medium, H1-derived cells, mRNA. On the procedure: as §1, with “TrypLET™” for “TrypLE™”
(§2) Stage 6 cells were cultured for seven days in BLAR medium supplemented with a 1:100 dilution of ITS-X; 20 mM glucose (final); 1.5 g/L sodium bicarbonate; 2% FAF-BSA; 10 μg/ml of heparin, 10 μM ZnSO4, 1 μM T3 as 3,3′, 5-triiodo-L-thyronine sodium salt, 10 μM ALK5 inhibitor II, 1 mM N-acetyl cysteine. […]
(§3) At Stage 7, day 7, mRNA was collected and expression of MAFA, UCN3, PDX1, NKX6.1, insulin and G6PC2 evaluated as compared to undifferentiated human stem cells. […]

The test system of assay [4] is MAFA expression. Kind of assay: Stage 7 treatment, real-time PCR of MAFA (Example 6). To be noted: Stage 7, day 7, 2 μM in Stage 7 medium, H1-derived cells, mRNA. The method, then: as §1, with “TrypLET™” for “TrypLE™”
as §2, §3

For assay [5], the system named is UCN3 expression. Kind of assay: Stage 7 treatment, real-time PCR of UCN3 (Example 6). The conditions noted are these: Stage 7, day 7, 2 μM in Stage 7 medium, H1-derived cells, mRNA. The method, then:
as §1, with “TrypLET™” for “TrypLE™”
as §2, §3

For the molecule `CC(C)CCN1c2nc(Nc3cc(F)c(O)c(F)c3)ncc2N(C)C(=O)C1C` (racemic) [RSK inhibitor, 2-(3,5-Difluoro-4-hydroxy-anilino)-8-isopentyl-5,7-dimethyl-7H-pteridin-6-one], the MAFA expression entry in assay [1] is “restored MAFA expression”.

For `CC(C)N(C[C@H]1O[C@@H](n2cnc3c(N)ncnc32)[C@H](O)[C@@H]1O)[C@H]1C[C@@H](CCc2nc3ccc(C(C)(C)C)cc3[nH]2)C1` [EPZ-5676, 9H-Purin-6-amine, 9-[5-deoxy-5-[[cis-3-[2-[6-(1,1-dimethylethyl)-1H-benzimidazol-2-yl]ethyl]cyclobutyl](1-methylethyl)amino]-β-D-ribofuranosyl]-], the “expression of MAFA as compared to untreated cultures” value in assay [2] is recorded as “significantly upregulated”.

For the molecule `COc1cc2ncnc(Nc3ccc(NC(=O)c4ccccc4)cc3)c2cc1OC` [aurora kinase inhibitor II, 4-(4′-Benzamidoanilino)-6,7-dimethoxyquinazoline], the G6PC2 expression entry in assay [3] was “maintenance of UCN3 and G6PC2 expression”. The MAFA expression entry in assay [4] is “increase in MAFA expression”; in assay [1] it was “restored MAFA expression”. Also, in assay [5], the UCN3 expression entry is “maintenance of UCN3 and G6PC2 expression”.
